Source: patent US7459552B2, “Method for producing cyclic diamine derivative or salt thereof” (Kowa Co., Ltd., priority 2003, dated 2008)

Row | Compound | melting point
1 | CSc1cc(C)nc(SC)c1NC(=O)CN1CCN(CCSc2nc3cc(C(F)(F)F)ccc3o2)CC1 [Example 4, 2-[4-[2-(5-trifluoromethylbenzoxazol-2-ylthio)ethyl]piperazin-1-yl]-N-[2,4-bis(methylthio)-6-methylpyridin-3-yl]acetamide] | 103 to 104 °C
2 | Cc1cc(OCC(F)(F)F)c(NC(=O)CN2CCN(CCSc3nc4cc(F)c(F)cc4[nH]3)CC2)c(OCC(F)(F)F)n1 [Example 5, 2-[4-[2-(5,6-difluorobenzimidazol-2-ylthio)ethyl]piperazin-1-yl]-N-[2,4-bis(2,2,2-trifluoroethoxy)-6-methylpyridin-3-yl]acetamide] | 191 to 192 °C
3 | Cc1cc(OCC(F)(F)F)c(NC(=O)CN2CCN(CCSc3nc4ccccc4o3)CC2)c(OCC(F)(F)F)n1 [Example 7, 2-[4-[2-(benzoxazol-2-ylthio)ethyl]piperazin-1-yl]-N-[2,4-bis(2,2,2-trifluoroethoxy)-6-methylpyridin-3-yl]acetamide] | 141 to 142 °C
4 | Cc1cc(C(F)(F)F)c(NC(=O)CN2CCN(CCSc3nc4ccccc4s3)CC2)c(C)n1 [Example 8, 2-[4-[2-(benzothiazol-2-ylthio)ethyl]piperazin-1-yl]-N-[2,6-dimethyl-4-trifluoromethyl-pyridin-3-yl]acetamide] | 107 to 108 °C
